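Each compound was tested at five concentrations against cells in 96-well plates for 48 hours. The concentration for 50% growth inhibition is given as GI50.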 Calls of active or inactive are those of the source. No stated cut-off is given here; in the data, active = GI50 up to about 1.1 µM and inactive = higher.
What was measured:
Test in all cases: NCI-60 cell line screen, 48 h
DU-145 = system: DU-145
CCRF-CEM = system: CCRF-CEM
UACC-257 = system: UACC-257
OVCAR-4 = system: OVCAR-4
UACC-62 = system: UACC-62
NCI-H23 = system: NCI-H23
PC-3 = system: PC-3
EKVX = system: EKVX
OVCAR-8 = system: OVCAR-8
OVCAR-3 = system: OVCAR-3
SW-620 = system: SW-620
HOP-62 = system: HOP-62
BT-549 = system: BT-549
SK-OV-3 = system: SK-OV-3
SNB-19 = system: SNB-19
IGROV-1 = system: IGROV-1
RPMI-8226 = system: RPMI-8226
786-0 = system: 786-0
HCT-15 = system: HCT-15
CAKI-1 = system: CAKI-1
RXF 393 = system: RXF 393
SR = system: SR
NCI-H460 = system: NCI-H460
SN12C = system: SN12C
A498 = system: A498
NCI-H226 = system: NCI-H226
U-251 = system: U-251
SK-MEL-5 = system: SK-MEL-5
HCT-116 = system: HCT-116
MOLT-4 = system: MOLT-4
ACHN = system: ACHN
HL-60 = system: HL-60
HCC 2998 = system: HCC 2998
SF-295 = system: SF-295
LOX IMVI = system: LOX IMVI
HT-29 = system: HT-29
COLO 205 = system: COLO 205
KM12 = system: KM12
MCF7 = system: MCF7
T47D = system: T47D
Malme-3M = system: Malme-3M
SK-MEL-2 = system: SK-MEL-2
MDA-MB-231 = system: MDA-MB-231
K562 = system: K562
SNB-75 = system: SNB-75
HOP-92 = system: HOP-92
NCI/ADR-RES = system: NCI/ADR-RES
SF-268 = system: SF-268
UO-31 = system: UO-31
SK-MEL-28 = system: SK-MEL-28
Hs-578T = system: Hs-578T
MDA-MB-435 = system: MDA-MB-435
MDA-N = system: MDA-N
NCI-H522 = system: NCI-H522
SF-539 = system: SF-539
A549 = system: A549
OVCAR-5 = system: OVCAR-5
M14 = system: M14
TK-10 = system: TK-10

CN(C)Cc1cc(C(C)(C)C)ccc1-c1ccc(C(C)(C)C)cc1CN(C)C
GI50 (DU-145): > 100 µM (inactive) | GI50 (CCRF-CEM): 56.8 µM (inactive) | GI50 (UACC-257): 37.1 µM (inactive) | GI50 (OVCAR-4): > 100 µM (inactive) | GI50 (UACC-62): > 100 µM (inactive) | GI50 (NCI-H23): > 100 µM (inactive) | GI50 (PC-3): 43.7 µM (inactive) | GI50 (EKVX): 62.2 µM (inactive) | GI50 (OVCAR-8): > 100 µM (inactive) | GI50 (OVCAR-3): 43.3 µM (inactive) | GI50 (SW-620): > 100 µM (inactive) | GI50 (HOP-62): > 100 µM (inactive) | GI50 (BT-549): > 100 µM (inactive) | GI50 (SK-OV-3): > 100 µM (inactive) | GI50 (SNB-19): > 100 µM (inactive) | GI50 (IGROV-1): > 100 µM (inactive) | GI50 (RPMI-8226): 39.9 µM (inactive) | GI50 (786-0): > 100 µM (inactive) | GI50 (HCT-15): > 100 µM | GI50 (CAKI-1): > 100 µM (inactive) | GI50 (RXF 393): > 100 µM (inactive) | GI50 (SR): > 100 µM (inactive) | GI50 (NCI-H460): 96.8 µM (inactive) | GI50 (SN12C): > 100 µM (inactive) | GI50 (A498): 75.3 µM (inactive) | GI50 (NCI-H226): > 100 µM (inactive) | GI50 (U-251): 77.8 µM (inactive) | GI50 (SK-MEL-5): > 100 µM (inactive) | GI50 (HCT-116): > 100 µM (inactive) | GI50 (MOLT-4): > 100 µM (inactive) | GI50 (ACHN): > 100 µM (inactive) | GI50 (HL-60): > 100 µM (inactive) | GI50 (HCC 2998): 10.2 µM (inactive) | GI50 (SF-295): > 100 µM (inactive) | GI50 (LOX IMVI): > 100 µM (inactive) | GI50 (HT-29): 35 µM (inactive) | GI50 (COLO 205): 64.3 µM (inactive) | GI50 (KM12): > 100 µM (inactive) | GI50 (MCF7): 66.7 µM (inactive) | GI50 (T47D): > 100 µM (inactive) | GI50 (Malme-3M): 51.9 µM (inactive) | GI50 (SK-MEL-2): > 100 µM (inactive) | GI50 (MDA-MB-231): > 100 µM (inactive) | GI50 (K562): 40.7 µM (inactive) | GI50 (SNB-75): 88.1 µM (inactive) | GI50 (HOP-92): > 100 µM (inactive) | GI50 (NCI/ADR-RES): > 100 µM (inactive) | GI50 (SF-268): > 100 µM (inactive) | GI50 (UO-31): 81.3 µM (inactive) | GI50 (SK-MEL-28): 41.1 µM (inactive) | GI50 (Hs-578T): > 100 µM (inactive) | GI50 (MDA-MB-435): 84.3 µM (inactive) | GI50 (MDA-N): > 100 µM (inactive) | GI50 (NCI-H522): 57.8 µM (inactive) | GI50 (SF-539): > 100 µM (inactive) | GI50 (A549): > 100 µM (inactive) | GI50 (OVCAR-5): > 100 µM (inactive) | GI50 (M14): 41.6 µM (inactive) | GI50 (TK-10): > 100 µM (inactive)

ClCCCSSCCCCl
GI50 (DU-145): 43.1 µM (inactive) | GI50 (CCRF-CEM): 5.08 µM (inactive) | GI50 (UACC-257): 36.8 µM (inactive) | GI50 (OVCAR-4): 42.7 µM (inactive) | GI50 (UACC-62): 30.3 µM (inactive) | GI50 (NCI-H23): 38.3 µM (inactive) | GI50 (PC-3): 24.3 µM (inactive) | GI50 (EKVX): 74 µM (inactive) | GI50 (OVCAR-8): 23.6 µM (inactive) | GI50 (OVCAR-3): 36.6 µM (inactive) | GI50 (SW-620): 27.7 µM (inactive) | GI50 (HOP-62): 38.7 µM (inactive) | GI50 (BT-549): 21.5 µM (inactive) | GI50 (SK-OV-3): 44 µM (inactive) | GI50 (SNB-19): > 100 µM (inactive) | GI50 (IGROV-1): 33 µM (inactive) | GI50 (RPMI-8226): 31 µM (inactive) | GI50 (786-0): 30.2 µM (inactive) | GI50 (HCT-15): 22 µM | GI50 (CAKI-1): 32.2 µM (inactive) | GI50 (RXF 393): 48.9 µM (inactive) | GI50 (SR): 8.36 µM (inactive) | GI50 (NCI-H460): 35.6 µM (inactive) | GI50 (SN12C): 29.4 µM (inactive) | GI50 (A498): 38.7 µM (inactive) | GI50 (NCI-H226): > 79.4 µM (inactive) | GI50 (U-251): 42 µM (inactive) | GI50 (SK-MEL-5): 37.8 µM (inactive) | GI50 (HCT-116): 25.7 µM (inactive) | GI50 (MOLT-4): 2.06 µM (inactive) | GI50 (ACHN): 43.8 µM (inactive) | GI50 (HL-60): 3.86 µM (inactive) | GI50 (HCC 2998): 36.1 µM (inactive) | GI50 (SF-295): 37.5 µM (inactive) | GI50 (LOX IMVI): 27.2 µM (inactive) | GI50 (HT-29): 27.4 µM (inactive) | GI50 (COLO 205): 32.1 µM (inactive) | GI50 (KM12): 32.3 µM (inactive) | GI50 (MCF7): 30.3 µM (inactive) | GI50 (T47D): > 100 µM (inactive) | GI50 (Malme-3M): 32.3 µM (inactive) | GI50 (SK-MEL-2): 40.2 µM (inactive) | GI50 (MDA-MB-231): 35.8 µM (inactive) | GI50 (K562): 25.8 µM (inactive) | GI50 (SNB-75): 37.8 µM (inactive) | GI50 (HOP-92): 16.2 µM (inactive) | GI50 (NCI/ADR-RES): 34.4 µM (inactive) | GI50 (SF-268): 39.5 µM (inactive) | GI50 (UO-31): 30.7 µM (inactive) | GI50 (SK-MEL-28): 45 µM (inactive) | GI50 (Hs-578T): 17.8 µM (inactive) | GI50 (MDA-MB-435): 24.3 µM (inactive) | GI50 (MDA-N): 19.9 µM (inactive) | GI50 (NCI-H522): 25.9 µM (inactive) | GI50 (SF-539): 20.7 µM (inactive) | GI50 (A549): 38.6 µM (inactive) | GI50 (OVCAR-5): > 91.6 µM (inactive) | GI50 (M14): 38.4 µM (inactive) | GI50 (TK-10): > 59.4 µM (inactive)

COc1ccc(/C=C(/C)[N+](=O)[O-])cc1
GI50 (DU-145): 2.36 µM (inactive) | GI50 (CCRF-CEM): 0.565 µM (active) | GI50 (UACC-257): 1.5 µM (inactive) | GI50 (OVCAR-4): 3.09 µM (inactive) | GI50 (UACC-62): 1.68 µM (inactive) | GI50 (NCI-H23): 2.03 µM (inactive) | GI50 (PC-3): 2.16 µM (inactive) | GI50 (EKVX): 2.13 µM (inactive) | GI50 (OVCAR-8): 2.22 µM (inactive) | GI50 (OVCAR-3): 1.82 µM (inactive) | GI50 (SW-620): 2.01 µM (inactive) | GI50 (HOP-62): 1.86 µM (inactive) | GI50 (BT-549): 2.75 µM (inactive) | GI50 (SK-OV-3): 5.98 µM (inactive) | GI50 (SNB-19): 5.86 µM (inactive) | GI50 (IGROV-1): 2.13 µM (inactive) | GI50 (RPMI-8226): 0.394 µM (active) | GI50 (786-0): 1.26 µM (inactive) | GI50 (HCT-15): 2.28 µM | GI50 (CAKI-1): 2.32 µM (inactive) | GI50 (RXF 393): 1.69 µM (inactive) | GI50 (SR): 0.419 µM (active) | GI50 (NCI-H460): 2.18 µM (inactive) | GI50 (SN12C): 2.1 µM (inactive) | GI50 (A498): 2.7 µM (inactive) | GI50 (NCI-H226): 21.1 µM (inactive) | GI50 (U-251): 1.62 µM (inactive) | GI50 (SK-MEL-5): 2.48 µM (inactive) | GI50 (HCT-116): 1.75 µM (inactive) | GI50 (MOLT-4): 1.37 µM (inactive) | GI50 (ACHN): 1.99 µM (inactive) | GI50 (HL-60): 2.62 µM (inactive) | GI50 (HCC 2998): 1.77 µM (inactive) | GI50 (SF-295): 6.84 µM (inactive) | GI50 (LOX IMVI): 1.48 µM (inactive) | GI50 (HT-29): 3.1 µM (inactive) | GI50 (COLO 205): 2.08 µM (inactive) | GI50 (KM12): 1.67 µM (inactive) | GI50 (MCF7): 1.22 µM (inactive) | GI50 (T47D): 3.72 µM (inactive) | GI50 (Malme-3M): 2.11 µM (inactive) | GI50 (SK-MEL-2): 4.95 µM (inactive) | GI50 (MDA-MB-231): 3.24 µM (inactive) | GI50 (K562): 2.62 µM (inactive) | GI50 (SNB-75): 1.26 µM (inactive) | GI50 (HOP-92): 2 µM (inactive) | GI50 (NCI/ADR-RES): 3.41 µM (inactive) | GI50 (SF-268): 3.15 µM (inactive) | GI50 (UO-31): 1.67 µM (inactive) | GI50 (SK-MEL-28): 2.65 µM (inactive) | GI50 (Hs-578T): 9.02 µM (inactive) | GI50 (MDA-MB-435): 1.95 µM (inactive) | GI50 (MDA-N): 2.05 µM (inactive) | GI50 (NCI-H522): 0.292 µM (active) | GI50 (SF-539): 1.72 µM (inactive) | GI50 (A549): 4.21 µM (inactive) | GI50 (OVCAR-5): 3.19 µM (inactive) | GI50 (M14): 3.18 µM (inactive) | GI50 (TK-10): 1.82 µM (inactive)

— ChEMBL document CHEMBL1201862, “PubChem BioAssay data set” (2004)
